Assay results as given in US5230998A, “Method for the prescreening of drugs targeted to the V3 hypervariable loop of the HIV-1 envelope glycoprotein gp 120” (priority 1991, dated 1993).

What was measured:
[1] = test system: V3 hypervariable loop peptides from gp120 from 21 distinct HIV-1 isolates (clones); experiment: Inhibition of the reaction of V3 hypervariable loop peptides from 21 HIV-1 isolates with homologous anti-peptide antisera; format: binding; details: 21 HIV-1 isolates (clones); antisera 1:1,000; FIG. 7A, 7B
Description: FIGS. 7A and 7B are bar graphs depicting the inhibitory effect of deuteroporphyrin IX,2,4 (4,2) hydroxyethylvinyl (FIG. 7A) and of meso-tetra(4-carboxyphenyl)porphine (FIG. 7B) on the reaction of full-length V3 hypervariable loop peptides from gp120 from 21 distinct HIV-1 isolates (clones) with homologous anti-peptide antisera. Peptide coated wells of polystyrene plates were reacted in the presence and absence of the inhibitory compounds with the respective rabbit antisera diluted 1:1,000, and the attachment of rabbit IgG was subsequently determined using ^125 I-labeled anti-rabbit IgG. […]
(§1) To define sites on gp120/gp41 reacting with ATA, the inhibitory effect of this compound was studied by RIA tests using gp120- and gp160-coated wells, respectively, and antisera (final dilutions 1:150) against synthetic peptides from the entire sequence of gp120/gp41 of HIV-1 BH 10. […] Attached rabbit IgG was detected using ^125 I-labeled anti-rabbit IgG, as described before (Neurath et al., 1990, J. Gen. Virol., 71, 85-95). […]
(§2) The inhibitory effect of ATA and of other compounds on the reaction between antibodies with predetermined specificity and gp120 (or synthetic peptides derived from it) was determined from the formula: [formula] An analogous formula was used to calculate the percentage of inhibition from optical density readings resulting from ELISA tests.

[2] = test system: HIV-1 isolates IIIB, MN, SF2 and RF; experiment: Antiviral activity of porphyrin derivatives for distinct HIV-1 isolates in promonocytic U937 cells (FIG. 12A); format: cell-based
Procedure: (§3) FIG. 12A and FIG. 12B are graphs depicting antiviral activity of selected porphyrin derivatives for distinct HIV-1 isolates in T-lymphocytic (MT-2) (FIG. 12B) and a promonocytic (U937) (FIG. 12A) cell lines. […] Therefore, the antiviral activity against HIV-1 RF could not be tested in this cell line. Note that the higher the value of EC50, the less efficient is the drug for inhibiting HIV-1 replication.
(§4) Four of the porphyrin derivatives (see FIG. 12) were tested for their inhibiting activity and the replication of four distinct HIV-1 isolates: IIIB, MN, SF2 and RF in two different cell lines, U937 and MT-2.

[3] = test system: HIV-1 isolates IIIB, MN, SF2 and RF; experiment: Antiviral activity of porphyrin derivatives for distinct HIV-1 isolates in T-lymphocytic MT-2 cells (FIG. 12B); format: cell-based
Procedure: as §3, §4

V3 peptide from HIV-1 SC = biological target: T1, V3 peptide from HIV-1 SC (Human immunodeficiency virus type 1 (SC ISOLATE), UniProt P05878); experiment: Inhibition of the reaction of antibodies with the V3 peptide from HIV-1 SC (FIG. 7B); format: binding; details: as compared with HXB-2 and HXB-3 V3 peptides
T1 construct: cut from Env gp160
Description: FIGS. 7A and 7B are bar graphs depicting the inhibitory effect of deuteroporphyrin IX,2,4 (4,2) hydroxyethylvinyl (FIG. 7A) and of meso-tetra(4-carboxyphenyl)porphine (FIG. 7B) on the reaction of full-length V3 hypervariable loop peptides from gp120 from 21 distinct HIV-1 isolates (clones) with homologous anti-peptide antisera. Peptide coated wells of polystyrene plates were reacted in the presence and absence of the inhibitory compounds with the respective rabbit antisera diluted 1:1,000, and the attachment of rabbit IgG was subsequently determined using ^125 I-labeled anti-rabbit IgG.
as §1, §2

[4] = biological target: T2, HIV-1 gp120 V3 hypervariable loop (Human immunodeficiency virus type 1 group M subtype B, UniProt P03375); experiment: biochemical; format: binding; details: excess of serum proteins in medium
T2 construct: Polystyrene plates coated with recombinant gp120 and gp160, respectively; purchased American Bio-Technologies, Inc., Cambridge, Mass; host or cells: baculovirus expression system
Procedure: Wells of 96 well polystyrene plates (Immulon 2, Dynatech Laboratories, Inc., Chantilly, Va.) were coated with synthetic peptides (200 μl; 20μg/ml in 0.1 M Tris-HCl, pH 8.8) overnight at 20° C. The peptides were from the sequence of HIV-1, clone BH 10 envelope glycoproteins gp120 and gp41 (Neurath, A. R., Strick, N., and Lee, E. Y. S. (1990), "B-cell Epitope Mapping of Human Immunodeficiency virus (HIV-1) Envelope Glycoprotein with Long (19 to 36-residue) Synthetic Peptides", J. Gen. Virol., 71., 85-95) and from V3 hypervariable loops of 21 distinct HIV-1 isolates (clones) Neurath, A. R., and Strick, N., (1990), "Confronting the Hypervariability of an Immunodominant Epitope Eliciting Virus Neutralizing Antibodies from the Envelope Glycoprotein of the Human Immunodeficiency Virus Type 1 (HIV-1)", Molec. Immunol., 27, 539-549. The latter peptides corresponded to full-length V3 loops generated by disulfide bonds between N- and C- terminal cysteine residues. After washing with 0.14 M NaCl, 0.01 M Tris, 0.02% NaN3 (TS), the wells were postcoated with a mixture of bovine serum albumin (BSA) and gelatine (10 and 2.5 mg/ml, respectively) in TS. BSA was omitted from the postcoating solution for RIA tests in which antibodies to ATA were used. Polystyrene plates coated with recombinant gp120 and gp160, respectively, (500 ng/well; from American Bio-Technologies, Inc., Cambridge, Mass. and MicroGeneSys, Inc., West Haven, Conn., respectively) were also used for RIA and ELISA tests.
To define sites on gp120/gp41 reacting with ATA, the inhibitory effect of this compound was studied by RIA tests using gp120- and gp160-coated wells, respectively, and antisera (final dilutions 1:150) against synthetic peptides from the entire sequence of gp120/gp41 of HIV-1 BH 10. The preparation and biological properties of these antisera were described elsewhere (Neurath et al., (1990), J. Gen. Virol., 71, 85-95). Each of the antisera was diluted in a mixture of fetal bovine serum and goat serum (9:1) containing 0.1% Tween 20, adjusted to pH 8. ATA (final concentration 50 μg/ml) was added in one set of assays, but was omitted from a parallel set. After incubation overnight at 25° C., the plates were washed with TS. Attached rabbit IgG was detected using ^125 I-labeled anti-rabbit IgG, as described before (Neurath et al., 1990, J. Gen. Virol., 71, 85-95). Similarly, the inhibitory effect of ATA on the reaction of peptides derived from gp120/gp41 and of peptides derived from V3 hypervariable loops from gp120 of distinct HIV-1 isolates with the respective homologous anti-peptide antisera was studied. In the latter case, antisera were diluted 1:1,000 for the assays.
as §2
Chemicals other than ATA were screened for inhibitory activity essentially as described above. […] Chemicals with inhibitory activity established by the respective immunoassays were screened further for antiviral activity.
Commercially available ATA is a mixture of monomers and polymers of distinct molecular masses (Gonzalez et al., (1979) Biochem. Biophys. Acta, 562, 534-545); Cushman et al., (1991), J. Chem., 34, 329-337). The monomers [molecular mass (M.W.)=422.4 daltons] were separated from the polymers. ATA (20 mg/ml in the form of free acid neutralized with 0.4 M NaOH) was dialyzed against H2 O in a dialysis membrane with a molecular mass cutoff of 500 daltons.

[5] = test system: gp120 V3 hypervariable loop; experiment: Binding of gp120 to monoclonal antibodies specific for the V3 hypervariable loop in the absence of other proteins; design: species or system HIV-1; details: 20-fold excess over gp120, absence of other proteins
Description: The inhibitory effect of dextran sulfate on gp120-antibody binding under these conditions was confirmed. The apparently contradictory results concerning binding of dextran sulfate to gp120 obtained by different methods can probably be explained by differences in equilibrium constants defining the binding reaction of gp120 with ATA and dextran sulfate, respectively. […] The relatively weak binding of dextran sulfate to the V3 hypervariable loop may contribute to the ineffectiveness of this substance in inhibiting HIV-1 replication in vivo (Mitsuya et al., (1990), Science, 249, 1533-1544).

[6] = test system: gp120 V3 hypervariable loop; details: 20-fold excess over gp120, absence of other proteins; cited from earlier work
[7] = test system: gp120 expressed on the surface of HIV-1-infected cells; details: literature; cited from earlier work
HIV-1 = details: literature; cited from earlier work

T1 sequence (P05878 296-330): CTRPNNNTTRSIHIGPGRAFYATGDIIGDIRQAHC

Compound: O=C(O)c1ccc(-c2c3nc(c(-c4ccc(C(=O)O)cc4)c4ccc([nH]4)c(-c4ccc(C(=O)O)cc4)c4nc(c(-c5ccc(C(=O)O)cc5)c5ccc2[nH]5)C=C4)C=C3)cc1 [substance #160, meso-tetra (4-carboxyphenyl) porphine]
- inhibition of interaction between V3 hypervariable loop peptides and homologous antibodies [1]: inhibited the interaction between V hypervariable loop peptides and homologous antibodies corresponding to all 21 HIV-1 isolates (clones) tested
- inhibition of HIV-1 replication in U937 cells [2]: most effective agent with broad specificity
- inhibition of HIV-1 replication in MT-2 cells [3]: most effective agent with broad specificity
- inhibitory activity on the reaction of antibodies with the V3 peptide (V3 peptide from HIV-1 SC): relatively low inhibitory activity

Compound: deuteroporphyrin IX, 2,4 (4,2) hydroxy-ethyl vinyl [substance #151]
- inhibition of interaction between V3 hypervariable loop peptides and homologous antibodies [1]: inhibited the interaction between V hypervariable loop peptides and homologous antibodies corresponding to all 21 HIV-1 isolates (clones) tested

Compound: dextran sulfate
- reaction with the V3 hypervariable loop as determined by RIA (ELISA) tests [4]: did not react with the V3 hypervariable loop
- inhibitory effect on gp120-antibody binding [5]: confirmed
- blocking of binding of gp120 to monoclonal antibodies [6]: blocked
- inhibition of the reaction of gp120 on infected cells with monoclonal anti-gp120 antibodies [7]: inhibit the reaction of gp120 expressed on the surface of HIV-1-infected cells with monoclonal anti-gp120 antibodies
- inhibition of HIV-1 replication in vivo (HIV-1): ineffectiveness
